Molecular target: Cannabinoid receptor 1 (Rattus norvegicus, UniProt P20272)
Test: Inhibition of cannabinoid CB1 receptor in Sprague-Dawley rat brain

Sequence of Cannabinoid receptor 1 (P20272 whole entry): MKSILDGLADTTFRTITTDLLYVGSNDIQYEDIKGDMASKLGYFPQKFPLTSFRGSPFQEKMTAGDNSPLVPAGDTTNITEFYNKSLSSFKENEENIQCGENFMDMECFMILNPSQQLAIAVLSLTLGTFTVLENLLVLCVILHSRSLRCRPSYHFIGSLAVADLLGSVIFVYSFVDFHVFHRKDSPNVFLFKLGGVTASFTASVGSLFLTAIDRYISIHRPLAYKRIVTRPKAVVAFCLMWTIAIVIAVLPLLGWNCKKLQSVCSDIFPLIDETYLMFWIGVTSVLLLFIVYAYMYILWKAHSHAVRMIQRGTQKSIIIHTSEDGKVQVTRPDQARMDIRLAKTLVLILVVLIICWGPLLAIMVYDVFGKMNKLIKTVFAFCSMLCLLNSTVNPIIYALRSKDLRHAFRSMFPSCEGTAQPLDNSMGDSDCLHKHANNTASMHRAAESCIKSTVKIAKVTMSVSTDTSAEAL

Row | IC50 | SMILES
1 | > 1000 nM | Cc1c(-c2nnn(C)n2)nn(-c2ccc(Cl)cc2Cl)c1-c1ccc(Cl)cc1
2 | 1060 nM | Cc1c(-c2nnnn2C)nn(-c2ccc(Cl)cc2Cl)c1-c1ccc(Cl)cc1
3 | 87.7 nM | CCCCn1nnc(-c2nn(-c3ccc(Cl)cc3Cl)c(-c3ccc(Cl)cc3)c2C)n1
4 | 87.8 nM | CCCCn1nnnc1-c1nn(-c2ccc(Cl)cc2Cl)c(-c2ccc(Cl)cc2)c1C
5 | 361 nM | Cc1c(-c2nnnn2C(C)(C)C)nn(-c2ccc(Cl)cc2Cl)c1-c1ccc(Cl)cc1
6 | > 1000 nM | CCn1nnc(-c2nn(-c3ccc(Cl)cc3Cl)c(-c3ccc(Cl)cc3)c2C)n1
7 | 33.8 nM | Cc1c(-c2nnnn2-c2ccccc2)nn(-c2ccc(Cl)cc2Cl)c1-c1ccc(Cl)cc1
8 | 50.6 nM | CCCCCCCCn1nnc(-c2nn(-c3ccc(Cl)cc3Cl)c(-c3ccc(Cl)cc3)c2C)n1
9 | 94.3 nM | Cc1c(-c2nnnn2Cc2ccccc2)nn(-c2ccc(Cl)cc2Cl)c1-c1ccc(Cl)cc1
10 | 26.7 nM | Cc1c(-c2nnnn2C2CCCCCC2)nn(-c2ccc(Cl)cc2Cl)c1-c1ccc(Cl)cc1

Row | SMILES | IC50
11 | CCCCCCCCn1nnnc1-c1nn(-c2ccc(Cl)cc2Cl)c(-c2ccc(Cl)cc2)c1C | 47.3 nM

System: not listed separately
Test: Selectivity ratio of IC50 for Sprague-Dawley rat CB1 receptor over IC50 for human CB2 receptor

Row | SMILES | Ratio IC50
12 | Cc1c(-c2nnnn2C2CCCC2)nn(-c2ccc(Cl)cc2Cl)c1-c1ccc(Br)cc1 | 366

Molecular target: Cannabinoid receptor 2 (Homo sapiens, UniProt P34972)
Sequence (P34972 whole entry): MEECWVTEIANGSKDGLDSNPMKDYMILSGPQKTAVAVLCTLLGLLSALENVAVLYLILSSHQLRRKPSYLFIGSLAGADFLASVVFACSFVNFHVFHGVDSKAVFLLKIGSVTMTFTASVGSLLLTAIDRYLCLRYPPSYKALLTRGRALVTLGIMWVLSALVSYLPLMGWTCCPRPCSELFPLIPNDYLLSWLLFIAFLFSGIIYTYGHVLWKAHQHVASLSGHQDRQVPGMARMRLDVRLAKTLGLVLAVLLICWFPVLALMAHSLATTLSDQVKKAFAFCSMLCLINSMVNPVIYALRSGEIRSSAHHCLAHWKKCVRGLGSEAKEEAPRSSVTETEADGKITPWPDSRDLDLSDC
Test: Displacement of [3H]WIN-55212-2 from human cannabinoid CB2 receptor expressed in CHO cells
Assay type: cell-based

Row | SMILES | IC50
13 | CCc1c(-c2nnnn2C2CCCC2)nn(-c2ccc(Cl)cc2Cl)c1-c1ccc(Br)cc1 | 1930 nM
14 | CCc1c(-c2nnnn2C2CCCC2)nn(-c2ccc(Cl)cc2Cl)c1-c1ccc(Cl)cc1 | 840 nM
15 | Cc1c(-c2nnnn2C2CCCC2)nn(-c2ccc(Cl)cc2Cl)c1-c1ccc(Cl)cc1 | > 10000 nM
16 | Cc1c(-c2nnnn2C2CCCC2)nn(-c2ccc(Cl)cc2Cl)c1-c1ccc(Br)cc1 | 4240 nM
17 | Cc1c(-c2nnnn2C2CCCCCC2)nn(-c2ccc(Cl)cc2Cl)c1-c1ccc(Br)cc1 | > 10000 nM
18 | Cc1c(-c2nnnn2C2CCCCCC2)nn(-c2ccc(Cl)cc2Cl)c1-c1ccc(Cl)cc1 | 818 nM
